In patent US20250236617A1, “BICYCLIC TETRAHYDROTHIAZEPINE DERIVATIVES” (Hoffmann-La Roche Inc., priority 2022, published 2025):

Assays:
[1] = molecular target: DGKalpha (hDGKalpha(1-735)-N-His) (Homo sapiens (Human), UniProt P23743); assay: In vitro DGK inhibition assay, ADP-Glo (in house), DGKalpha; type: biochemical; settings: DLG liposomes, 25 μM ATP, 4 nM enzyme, 1 hour reaction
Procedure: (§1) DGK α and ζ kinases use ATP to phosphorylate the substrate 1,2-dilauroyl-sn-glycerol (DLG, incorporated in the liposomes). ATP is converted to ADP as a result of this enzymatic reaction.
(§2) After the kinase reaction, an ATP-depletion reagent is added to terminate the kinase reaction and deplete any remaining ATP, leaving only ADP. Second, a detection reagent is added to simultaneously convert ADP to ATP and allow the newly synthesized ATP to be converted to light using a coupled luciferase/luciferin reaction.
(§3) Purification of both enzymes was performed as previously described by Takahashi et al., PeerJ, 2018 (Takahashi, D.; Sakane, F. Expression and purification of human diacylglycerol kinase alpha from baculovirus-infected insect cells for structural studies. PeerJ 2018, 6, No. e5449).
(§4) A concentrated liposome solution was prepared in assay buffer without DTT and BSA: 2 mM of DLG in 21 mM of total liposome (2 mM DLG/8 mM PS/11 mM PC). The reaction mixtures contain the assay buffer with a final DLG concentration of 125 uM ATP concentrations of 25 μM (for DGKA assay) or 50 μM (for DGKZ assay). The reactions were started by addition of DGK α and ζ kinases at 4 nM and 2 nM final concentrations, respectively. After 1 hour reaction, the amount of ADP formed was detected with the ADP-Glo kinase assay (Promega) according to the manufacturer instructions. Compounds were added in 11-points dose response, starting at […], 1:3 dilutions, with a final DMSO concentration of 2%. The multidrop combi was used as a liquid handler and luminescence was read with 0.5 s by the envision reader (PE).

[2] = molecular target: DGKzeta (hDGKzeta(1-928)-N-His) (Homo sapiens (Human), UniProt Q13574); assay: In vitro DGK inhibition assay, ADP-Glo (in house), DGKzeta; type: biochemical; settings: DLG liposomes, 50 μM ATP, 2 nM enzyme, 1 hour reaction
DGKzeta (hDGKzeta(1-928)-N-His), sequence (Q13574 whole entry): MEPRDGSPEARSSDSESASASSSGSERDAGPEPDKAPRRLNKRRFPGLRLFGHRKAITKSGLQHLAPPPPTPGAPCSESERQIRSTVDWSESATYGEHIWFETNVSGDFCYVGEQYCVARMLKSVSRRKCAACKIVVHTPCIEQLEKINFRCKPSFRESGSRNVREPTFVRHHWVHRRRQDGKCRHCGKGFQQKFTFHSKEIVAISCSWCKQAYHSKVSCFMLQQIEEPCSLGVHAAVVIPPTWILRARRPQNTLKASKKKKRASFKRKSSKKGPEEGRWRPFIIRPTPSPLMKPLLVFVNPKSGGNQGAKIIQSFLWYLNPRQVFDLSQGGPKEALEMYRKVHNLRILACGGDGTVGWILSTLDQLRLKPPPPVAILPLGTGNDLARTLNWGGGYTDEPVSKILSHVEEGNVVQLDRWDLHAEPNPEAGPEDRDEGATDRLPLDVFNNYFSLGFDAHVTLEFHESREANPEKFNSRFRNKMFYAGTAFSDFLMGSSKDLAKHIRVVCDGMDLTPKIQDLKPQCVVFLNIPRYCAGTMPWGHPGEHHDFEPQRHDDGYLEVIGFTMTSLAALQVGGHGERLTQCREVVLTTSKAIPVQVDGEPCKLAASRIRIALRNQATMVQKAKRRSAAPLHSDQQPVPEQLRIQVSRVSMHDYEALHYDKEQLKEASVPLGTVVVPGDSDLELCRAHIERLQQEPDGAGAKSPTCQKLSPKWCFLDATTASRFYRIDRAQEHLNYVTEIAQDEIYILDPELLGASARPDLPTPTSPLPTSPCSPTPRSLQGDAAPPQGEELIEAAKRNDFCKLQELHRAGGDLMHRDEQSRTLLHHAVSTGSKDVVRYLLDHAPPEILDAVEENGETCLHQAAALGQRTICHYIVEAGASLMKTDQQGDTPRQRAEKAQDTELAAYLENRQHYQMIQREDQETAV
Procedure: as §1, §2, §3, §4

primary human T-cells [3] = assay: IL2 secretion measurements in CD3-stimulated T-cells; type: cell-based; settings: CD3 condition; for Emax IL2 (% activation): 24 hours, 20 μM reference compound A1 = 100%; for EC50: Homo sapiens, T-cell, IL2 secretion after 24 hours, read-out: Tcell IL2 CD3 EC50
Outline: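 Expanded primary human T-cells (100 k/well, RPMI + 5% human serum) on plate-bound anti-CD3 (donor-titrated) or PBS counter-screen wells, 5–6 pt dose response from 20 or 10 μM top (dilution factor 3.333), 0.2% DMSO final. IL-2 in 24 h supernatant by ProQuantum immunoassay or ELISA. Normalised to DMSO (0%) and 20 μM reference A1 (100%); EC50 and Emax from sigmoidal fit.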

primary human T-cells [4] = assay: T-cell proliferation assay (CellTiter-Glo); type: cell-based; settings: CD3 condition; for Emax proliferation (% activation): 5 days, 20 μM reference compound A1 = 100%; for EC50: Homo sapiens, T-cell, 120 h, proliferation after 5 days, CellTiter-Glo, read-out: Tcell Proliferation CD3 EC50

DGKalpha (hDGKalpha(1-735)-N-His), sequence (P23743 whole entry): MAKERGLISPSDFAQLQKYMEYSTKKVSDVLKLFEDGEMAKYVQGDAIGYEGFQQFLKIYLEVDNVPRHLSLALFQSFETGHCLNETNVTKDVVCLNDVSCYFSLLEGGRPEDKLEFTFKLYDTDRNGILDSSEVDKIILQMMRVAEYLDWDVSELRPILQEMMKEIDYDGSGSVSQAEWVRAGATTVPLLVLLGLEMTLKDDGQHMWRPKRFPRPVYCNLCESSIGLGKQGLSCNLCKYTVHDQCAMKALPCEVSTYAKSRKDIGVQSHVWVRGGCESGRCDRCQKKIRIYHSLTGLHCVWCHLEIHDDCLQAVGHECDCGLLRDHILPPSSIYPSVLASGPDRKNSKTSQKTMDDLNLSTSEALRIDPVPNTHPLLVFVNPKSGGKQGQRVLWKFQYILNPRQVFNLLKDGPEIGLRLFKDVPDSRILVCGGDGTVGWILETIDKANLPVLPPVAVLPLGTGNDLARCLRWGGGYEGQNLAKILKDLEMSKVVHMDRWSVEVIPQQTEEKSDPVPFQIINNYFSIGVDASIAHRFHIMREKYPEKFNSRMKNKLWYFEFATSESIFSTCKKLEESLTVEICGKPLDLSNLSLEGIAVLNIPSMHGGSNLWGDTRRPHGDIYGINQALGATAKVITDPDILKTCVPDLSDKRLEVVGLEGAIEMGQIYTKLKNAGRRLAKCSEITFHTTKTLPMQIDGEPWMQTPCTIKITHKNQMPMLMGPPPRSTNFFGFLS

IC50 [1] | IC50 [2] | EC50 (primary human T-cells [3]) | SMILES | Emax IL2 (% activation) (primary human T-cells [3]) | Emax proliferation (% activation) (primary human T-cells [4]) | EC50 (primary human T-cells [4])
31 µM | 8.77 µM | 6.78 µM | N[C@H]1CS(=O)(=O)c2cc(F)c(-c3cncc(N4CCOCC4)c3)cc2N(Cc2ccc(-c3noc(C(F)(F)F)n3)cc2)C1=O [Example 21, (3R)-3-amino-8-fluoro-1,1-diketo-7-(5-morpholino-3-pyridyl)-5-[4-[5-(trifluoromethyl)-1,2,4-oxadiazol-3-yl]benzyl]-2,3-dihydro-1λ6,5-benzothiazepin-4-one] | 131 % activation | 140 % activation | 3.76 µM
29.1 µM | 2.6 µM | 0.327 µM | COc1ccc(-c2ccc(CN3C(=O)[C@@H](N)CS(=O)(=O)c4cc(F)c(-c5cncc(C(C)(C)C)c5)cc43)cc2)cc1 [Example 30, (3R)-3-amino-7-(5-tert-butyl-3-pyridyl)-8-fluoro-5-[[4-(4-methoxyphenyl)phenyl]methyl]-1,1-dioxo-2,3-dihydro-1λ6,5-benzothiazepin-4-one] | 100 % activation | 177 % activation | 0.333 µM
1.66 µM | 1.73 µM | > 10 µM | CS(=O)(=O)C(CCCl)c1cnnc(-c2cc3c(cc2F)S(=O)(=O)C[C@H](N)C(=O)N3Cc2ccc(Cl)cc2)n1 (stereo partly drawn) [Example 20, (3R)-3-amino-7-[5-(3-chloro-1-methylsulfonyl-propyl)-1,2,4-triazin-3-yl]-5-[(4-chlorophenyl)methyl]-8-fluoro-1,1-dioxo-2,3-dihydro-1λ6,5-benzothiazepin-4-one] | 39 % activation | 87 % activation | 9.11 µM
35.2 µM | 3.85 µM | 1.09 µM | CC(C)(C)c1cc(-c2cc3c(cc2F)S(=O)(=O)C[C@H](N)C(=O)N3Cc2ccc(Cl)cc2)cnn1 [Example 31, (3R)-3-amino-7-(6-tert-butylpyridazin-4-yl)-5-[(4-chlorophenyl)methyl]-8-fluoro-1,1-dioxo-2,3-dihydro-1λ6,5-benzothiazepin-4-one] | 80 % activation | 112 % activation | 0.501 µM
